Assay [1] relates to Tetranychus urticae. Kind of assay: mortality of red spider mites (TU), contact test. Format: in vivo, Tetranychus urticae (red spider mites - adult). The note with it: Tetranychus urticae, 72 h, 500 ppm, French bean leaf, 3 days, read-out: grading of mortality, TU. As to the method:
(§1) The activity of the Product was determined using a variety of insect pests. The Product was used in the form of liquid preparations containing 500 or 100 parts per million (ppm) by weight of the Product. The preparations were made by dissolving the Product in acetone and diluting the solutions with water containing 0.01% by weight of a wetting agent sold under the trade name "LISSAPOL" NX until the liquid preparations contained the required concentration of the Product. "Lissapol" is a Registered Trade Mark.
(§2) The test procedure adopted with regard to each pest was basically the same and comprised supporting a number of the pests on a medium which was usually a host plant or a foodstuff on which the pests feed, and treating either or both the pests and the medium with the preparations. The mortality of the pests was then assessed at periods usually varying from one to three days after the treatment.
(§3) The results of the tests are given in Table IV for each of the Products, at the rate in parts per million given in the second column as a grading of mortality designated as A, B or C wherein A indicates 80-100% mortality or knockdown, B indicates 50-79% mortality or knockdown and C indicates less than 50% mortality or knockdown.
(§4) In Table IV the pest organism used is designated by a letter code and the pests species, the support medium or food, and the type and duration of test is given in Table III.
(red spider mites - adult)

The test system of assay [2] is Myzus persicae. The assay is described as follows: mortality of aphids (MP), contact test. Format: in vivo, Myzus persicae (aphids). As to conditions: Myzus persicae, 48 h, 500 ppm, leaf, 2 days, read-out: grading of mortality, MP. As to the method:
as §1, §2, §3, §4

Assay [3] has as its system Nilaparvata lugens. The assay is described as follows: mortality of green leaf hopper (NL), contact test. Format: in vivo, Nilaparvata lugens (brown planthopper). The note with it: Nilaparvata lugens, in Brassica oleracea, 144 h, 500 ppm, cabbage leaf, 6 days, read-out: grading of mortality, NL. As for the experimental part:
as §1, §2, §3, §4

The test system of assay [4] is Musca domestica. Kind of assay: knockdown of houseflies (MD/KD). The format is in vivo, Musca domestica (houseflies - adults). As to conditions: Musca domestica, 500 ppm, cotton wool/sugar, 4 hours, read-out: grading of knockdown, MD/KD. As for the experimental part:
as §1, §2
In case of the species Musca domestica (housefly), additional tests to determine the knockdown effect of the compounds were performed.
as §3, §4

The subject of assay [5] is Musca domestica. The assay is described as follows: mortality of houseflies (MD), contact test. Format: in vivo, Musca domestica (houseflies - adults). As to conditions: Musca domestica, 24 h, 500 ppm, cotton wool/sugar, 1 day, read-out: grading of mortality, MD. As to the method:
as §1, §2, §3, §4

Assay [6] concerns Blattella germanica. Kind of assay: mortality of cockroach nymphs (BG), residual test. The format is in vivo, Blattella germanica (cockroach nymphs). As to conditions: Blattella germanica, 72 h, 500 ppm, plastic pot, 3 days, read-out: grading of mortality, BG. As for the experimental part:
as §1, §2, §3, §4

Assay [7] concerns Heliothis viriscens. Kind of assay: whole plant or invertebrate. Format: in vivo, Heliothis viriscens (tobacco budworm). As to conditions: in Gossypium hirsutum, 72 h, read-out: grading of mortality, HV. As for the experimental part:
as §1, §2, §3, §4

Assay [8] relates to Chilo partellurs. The assay is described as follows: mortality of stem borers (CP), residual test. Format: in vivo, Chilo partellurs (Stem borers). The note with it: Chilo, 72 h, 500 ppm, oil seed rape leaf, 3 days, read-out: grading of mortality, CP. As to the method: as §1, §2, §3, §4
Assay [9] deals with Diabrotica balteata. The assay is described as follows: mortality of rootworm larvae (DB), residual test. Format: in vivo, Diabrotica balteata (rootworm larvae). The note with it: Diabrotica balteata, in Zea mays, 72 h, 500 ppm, filter paper/maize seed, 3 days, read-out: grading of mortality, DB. As for the experimental part: as §1, §2, §3, §4

The mortality is the percentage killed.

For the compound `Clc1ccc(/C=C\C2(COCc3cccc(Oc4ccccc4)c3)CC2)cc1` [Compound 23, 1-[2-(4-chlorophenyl)ethen-1-yl]-1-(3-phenoxybenzyloxymethyl)cyclopropane], the mortality at 500 ppm is less than 50% in [1]; less than 50% in assay [2]; 80 to 100% in [3]; less than 50% in assay [5]; less than 50% in [6]; less than 50% in assay [7]. Moreover, the mortality at 500 ppm in assay [8] is 80 to 100%; in [9], less than 50%. For the same compound, the pest or weed control at 500 ppm in assay [4] was less than 50%.

On to `CC(C)(C=Cc1cc(Cl)cc(Cl)c1)COCc1cccc(Oc2ccccc2)c1` [Compound 15, 3,3-Dimethyl-1-(3,5-dichlorophenyl)-4-(3-phenoxybenzyloxy)but-1-ene], for which the mortality at 500 ppm in assay [1], in assay [2], in assay [3], in assay [5], in assay [6] and in assay [7] was less than 50% in each case. For the same compound, the mortality at 500 ppm in assay [8] was 80 to 100%; in assay [9] it was less than 50%. Also, the pest or weed control at 500 ppm in [4] is less than 50%.

Take `CC(C)(/C=C/c1ccc(F)cc1)COCc1ccc(F)c(Oc2ccccc2)c1` [Compound 6, 3,3-dimethyl-1-(4-fluorophenyl)-4-(4-fluoro-3-phenoxybenzyloxy)but-1-ene]: the mortality at 500 ppm in assay [1] lay within 50 to 79%; in assay [2], 80 to 100%; in [3], 80 to 100%; in assay [5] it was 80 to 100%; in assay [6], 80 to 100%; in [7] it was 80 to 100%. For the same compound, the mortality at 500 ppm in assay [8] and in assay [9] was 80 to 100% throughout. In assay [4], the pest or weed control at 500 ppm lay in the range of 80 to 100%.

With `CC(C)(/C=C/c1ccc(C(F)(F)F)cc1)COCc1cccc(Oc2ccccc2)c1` [Compound 12, 3,3-dimethyl-1-(4-trifluoromethylphenyl)-4-(3-phenoxybenzyloxy)but-1-ene], the mortality at 500 ppm in assay [1] was less than 50%; in [2], 50 to 79%; in assay [3], 80 to 100%; in [5], less than 50%; in [6], 50 to 79%; in assay [7] it was less than 50%. The mortality at 500 ppm is 80 to 100% in assay [8] and less than 50% in assay [9]. For the same compound, in assay [4], the pest or weed control at 500 ppm is less than 50%.

Turning to `COc1ccc(/C=C/C(C)(C)COCc2ccc(F)c(Oc3ccccc3)c2)cc1` [Compound 24, 3,3-dimethyl-1-(4-methoxyphenyl)-4-(4-fluoro-3-phenoxybenzyloxy)but-1-ene], the mortality at 500 ppm in assay [1] was 50 to 79%; in assay [2], 50 to 79%; in assay [3] it was 80 to 100%; in assay [5] it was 80 to 100%; in assay [6] it was less than 50%; in assay [7] it was 50 to 79%. In addition, the figures for the mortality at 500 ppm in assay [8] and in [9] were 80 to 100% and less than 50%, respectively. Moreover, in assay [4], the pest or weed control at 500 ppm was in the range of 80 to 100%.

The values above are taken from US4705900A, “Insecticidal alkenes” (Imperial Chemical Industries PLC, priority 1985, dated 1987).
